Data reported in publication PMC7504387, “Antimicrobial and Amyloidogenic Activity of Peptides Synthesized on the Basis of the Ribosomal S1 Protein from Thermus Thermophilus” (International Journal of Molecular Sciences, 2020).
Where a SMILES comes first, the peptide text is derived from it.

System: T. thermophilus cells
Test: Mass spectrometry proteome analysis of peptide-treated T. thermophilus cells
Assay type: cell-based
Parameters: change in number of ribosomal proteins in comparison with the control: dose or concentration left out as unconfirmed
Conditions: for Ribosomal Proteins (number detected, 3 or more identified peptides) / All Proteins / total protein detected (number) / detection of ribosomal S1 protein: 24 h; for Ribosomal Proteins (number detected, 3 or more identified peptides): control 51 (with S1), homogenization by freezing-thawing; for All Proteins / total protein detected (number): control 386; for detection of ribosomal S1 protein: control with S1; for Number of proteins, keyword Aminotransferase / Number of proteins, keyword Aromatic amino acid biosynthesis / Number of proteins, keyword DNA replication / Number of proteins, keyword Endonuclease / Number of proteins, keyword Histidine biosynthesis / Number of proteins, keyword Nuclease / Number of proteins, keyword One-carbon metabolism / Number of proteins, keyword Potassium / Number of proteins, keyword Purine salvage / Number of proteins, keyword S-adenosyl-L-methionine / Number of proteins, keyword Serine/threonine-protein kinase / Number of proteins, keyword tRNA processing: 0 μg/ml: 1; for Number of proteins, keyword Isoleucine biosynthesis / Number of proteins, keyword Ribosome biogenesis: 0 μg/ml: 2; for Number of proteins, keyword Aminopeptidase / Number of proteins, keyword Phosphoprotein / Number of proteins, keyword Purine biosynthesis / Number of proteins, keyword Redox-active center: 0 μg/ml: 3; for Number of proteins, keyword Glyoxylate bypass / Number of proteins, keyword Threonine biosynthesis: 0 μg/ml: 4; for Number of proteins, keyword Methionine biosynthesis: 0 μg/ml: 5; for Number of proteins, keyword Allosteric enzyme: 0 μg/ml: 6; for Number of proteins, keyword Serine protease: 0 μg/ml: 7; for Number of proteins, keyword NADP: 0 μg/ml: 8; for Number of proteins, keyword Protease: 0 μg/ml: 16; for Number of proteins, keyword Aminoacyl-tRNA synthetase: 0 μg/ml: 20; for Number of proteins, keyword Magnesium: 0 μg/ml: 23; for Number of proteins, keyword Hydrolase: 0 μg/ml: 26; for Unique proteins (number): control 100
Description: T. thermophilus cells were incubated with or without peptides for 24 h. […] The cell extract was not allowed to heat above +10 °C. Cell debris and aggregates were collected by sedimentation using centrifugation in a 221.23 V20 rotor of a Z 36 HK centrifuge (Hermle Labortechnik GmbH, Wehingen, Germany) at 20,000× g 20 min at +4 °C. The supernatant was dried using a vacuum Concentrator 5301 (Eppendorf, Hamburg, Germany). The prepared lysate was dissolved in 100 μL of 9M urea to denature the total protein. Then, 20 μL of cell lysates was separated by electrophoretic in 12% SDS-PAGE. Protein fractions were divided on three equal parts, that every part was chop and treated with trypsin protease. Mass spectrometry analysis of every part was carried out independently. To purify the samples treated with trypsin, filtration was carried out through ZipTips (MilliporeSigma, Burlington, MA, USA). Protein hydrolyzates were concentrated on a pre-column Acclaim PepMap 100 (C18, 3 μm particle size, 100 Å pore size, 300 μm inner diameter × 5 mm length) and separated on an analytical column Acclaim PepMap RSLC (2 μm particle size, 100 Å pore size, 75 μm inner diameter × 150 mm length) (Thermo Scientific, Waltham, MA, USA) using nanoflow liquid chromatograph EASY nLC 1000 (Thermo Scientific, Waltham, MA, USA). A high-performance mass spectrometer an Orbitrap Elite (Thermo Scientific, Dreieich, Germany) was used as a detector. Panoramic spectra were recorded in the mass range m/z 300–2000 at resolution 60,000; ion fragmentation was performed in an HCD cell; the fragmentation spectra were recorded at resolution 15,000. Preliminary selection of identified peptides with a molecular mass (MM) >600 Da was carried out according to the evaluation criteria of the PEAKS Studio 7.5 program (Bioinformatics Solution Inc., Waterloo, ON N2L 6J2, Canada). The peptides with the threshold function value T = −10·logP > 15 were considered significant, where P is the probability that false identification will reach the same or better match score. The T value of >15 corresponds to the p criterion <0.03 [29]. The received fragmentation spectra were analyzed by web-server Identipy. Identification of proteins in the mass spectra of the total protein was carried out using the database of the reference T. thermophilus proteome (Uniprot, No. UP000217909). Proteome data every part was summarized. Subsequent analysis was conducted by using the statistics software R with packages UniProt.ws, tidyverse, ggplot2, splitstackshape, reshape, readr, RVenn, UpSetR (https://rdrr.io/bioc/UniProt.ws/; https://CRAN.R-project.org/package=readr; https://CRAN.R-project.org/package=splitstackshape; https://CRAN.R-project.org/package=readr; https://CRAN.R-project.org/package=RVen).
Annotation of the certain proteins by keywords of the Uniprot database allows us to evaluate the changes in protein composition in 10 categories: biological process, cellular component, variety of coding sequences, molecular function, and others. The number of keywords corresponds to the number of annotated proteins.

CC[C@H](C)[C@H](NC(=O)[C@H](CCC(=O)O)NC(=O)[C@@H](NC(=O)[C@H](Cc1ccccc1)NC(=O)[C@@H](NC(=O)CNC(=O)[C@H](Cc1ccccc1)NC(=O)[C@H](CC(=O)O)NC(=O)[C@@H](NC(=O)[C@@H](NC(=O)CNC(=O)CN(C)C(=O)CNC(=O)CNC(=O)[C@H](CCCNC(=N)N)NC(=O)[C@H](CCCNC(=N)N)NC(=O)[C@H](CCCNC(=N)N)NC(=O)[C@H](CCC(N)=O)NC(=O)[C@H](CCCNC(=N)N)NC(=O)[C@H](CCCNC(=N)N)NC(=O)[C@H](CCCCN)NC(=O)[C@H](CCCCN)NC(=O)[C@@H](N)CCCNC(=N)N)C(C)C)[C@@H](C)O)C(C)C)C(C)C)C(=O)O [R23I] (HELM PEPTIDE1{R.K.K.R.R.Q.R.R.R.G.G.[Sar].G.V.T.D.F.G.V.F.V.E.I}$$$$V2.0; N-terminus and C-terminus assumed)
change in number of ribosomal proteins in comparison with the control (R23I): more than two-fold decrease
less numbers of proteins detected relative to the control (R23I 20 μg/mL): 40%
Common proteins for cells in control and treated cells (number) (R23I 20 μg/ml): 20
Ribosomal Proteins (number detected, 3 or more identified peptides) (R23I 20 μg/ml): 42
All Proteins / total protein detected (number) (R23I 20 μg/ml): 232
detection of ribosomal S1 protein (R23I 20 μg/ml): 42 (without S1)
Number of proteins, keyword Aminotransferase (R23I 20 μg/ml): 0
Number of proteins, keyword Aromatic amino acid biosynthesis (R23I 20 μg/ml): 0
Number of proteins, keyword DNA replication (R23I 20 μg/ml): 0
Number of proteins, keyword Endonuclease (R23I 20 μg/ml): 0
Number of proteins, keyword Histidine biosynthesis (R23I 20 μg/ml): 0
Number of proteins, keyword Nuclease (R23I 20 μg/ml): 0
Number of proteins, keyword One-carbon metabolism (R23I 20 μg/ml): 0
Number of proteins, keyword Potassium (R23I 20 μg/ml): 0
Number of proteins, keyword Purine salvage (R23I 20 μg/ml): 0
Number of proteins, keyword S-adenosyl-L-methionine (R23I 20 μg/ml): 0
Number of proteins, keyword Serine/threonine-protein kinase (R23I 20 μg/ml): 0
Number of proteins, keyword tRNA processing (R23I 20 μg/ml): 0
Number of proteins, keyword Isoleucine biosynthesis (R23I 20 μg/ml): 0
Number of proteins, keyword Ribosome biogenesis (R23I 20 μg/ml): 0
Number of proteins, keyword Aminopeptidase (R23I 20 μg/ml): 0
Number of proteins, keyword Phosphoprotein (R23I 20 μg/ml): 1
Number of proteins, keyword Purine biosynthesis (R23I 20 μg/ml): 1
Number of proteins, keyword Redox-active center (R23I 20 μg/ml): 0
Number of proteins, keyword Glyoxylate bypass (R23I 20 μg/ml): 1
Number of proteins, keyword Threonine biosynthesis (R23I 20 μg/ml): 1
Number of proteins, keyword Methionine biosynthesis (R23I 20 μg/ml): 1
Number of proteins, keyword Allosteric enzyme (R23I 20 μg/ml): 1
Number of proteins, keyword Serine protease (R23I 20 μg/ml): 1
Number of proteins, keyword NADP (R23I 20 μg/ml): 2
Number of proteins, keyword Protease (R23I 20 μg/ml): 5
Number of proteins, keyword Aminoacyl-tRNA synthetase (R23I 20 μg/ml): 7
Number of proteins, keyword Magnesium (R23I 20 μg/ml): 9
Number of proteins, keyword Hydrolase (R23I 20 μg/ml): 9
Unique proteins (number) (R23I 20 μg/ml): 11
less numbers of proteins detected relative to the control (R23I 50 μg/mL): 48%
ratio of proteins from treated cells to proteins from intact cells (R23I 50 μg/mL, 201 to 386 proteins): 0.52
Common proteins for cells in control and treated cells (number) (R23I 50 μg/ml): 9
Ribosomal Proteins (number detected, 3 or more identified peptides) (R23I 50 μg/ml): 39
All Proteins / total protein detected (number) (R23I 50 μg/ml): 201
detection of ribosomal S1 protein (R23I 50 μg/ml): 39 (without S1)
Number of proteins, keyword Aminotransferase (R23I 50 μg/ml): 0
Number of proteins, keyword Aromatic amino acid biosynthesis (R23I 50 μg/ml): 0
Number of proteins, keyword DNA replication (R23I 50 μg/ml): 0
Number of proteins, keyword Endonuclease (R23I 50 μg/ml): 0
Number of proteins, keyword Histidine biosynthesis (R23I 50 μg/ml): 0
Number of proteins, keyword Nuclease (R23I 50 μg/ml): 0
Number of proteins, keyword One-carbon metabolism (R23I 50 μg/ml): 0
Number of proteins, keyword Potassium (R23I 50 μg/ml): 0
Number of proteins, keyword Purine salvage (R23I 50 μg/ml): 0
Number of proteins, keyword S-adenosyl-L-methionine (R23I 50 μg/ml): 0
Number of proteins, keyword Serine/threonine-protein kinase (R23I 50 μg/ml): 0
Number of proteins, keyword tRNA processing (R23I 50 μg/ml): 1
Number of proteins, keyword Isoleucine biosynthesis (R23I 50 μg/ml): 0
Number of proteins, keyword Ribosome biogenesis (R23I 50 μg/ml): 0
Number of proteins, keyword Aminopeptidase (R23I 50 μg/ml): 0
Number of proteins, keyword Phosphoprotein (R23I 50 μg/ml): 2
Number of proteins, keyword Purine biosynthesis (R23I 50 μg/ml): 1
Number of proteins, keyword Redox-active center (R23I 50 μg/ml): 0
Number of proteins, keyword Glyoxylate bypass (R23I 50 μg/ml): 1
Number of proteins, keyword Threonine biosynthesis (R23I 50 μg/ml): 1
Number of proteins, keyword Methionine biosynthesis (R23I 50 μg/ml): 1
Number of proteins, keyword Allosteric enzyme (R23I 50 μg/ml): 1
Number of proteins, keyword Serine protease (R23I 50 μg/ml): 2
Number of proteins, keyword NADP (R23I 50 μg/ml): 2
Number of proteins, keyword Protease (R23I 50 μg/ml): 5
Number of proteins, keyword Aminoacyl-tRNA synthetase (R23I 50 μg/ml): 7
Number of proteins, keyword Magnesium (R23I 50 μg/ml): 9
Number of proteins, keyword Hydrolase (R23I 50 μg/ml): 8
Unique proteins (number) (R23I 50 μg/ml): 2
Common proteins for cells in control and treated cells (number) (R23I 100 μg/ml): 69
Ribosomal Proteins (number detected, 3 or more identified peptides) (R23I 100 μg/ml): 23
All Proteins / total protein detected (number) (R23I 100 μg/ml): 395
detection of ribosomal S1 protein (R23I 100 μg/ml): 23 (with S1)
Number of proteins, keyword Aminotransferase (R23I 100 μg/ml): 1
Number of proteins, keyword Aromatic amino acid biosynthesis (R23I 100 μg/ml): 1
Number of proteins, keyword DNA replication (R23I 100 μg/ml): 2
Number of proteins, keyword Endonuclease (R23I 100 μg/ml): 2
Number of proteins, keyword Histidine biosynthesis (R23I 100 μg/ml): 1
Number of proteins, keyword Nuclease (R23I 100 μg/ml): 2
Number of proteins, keyword One-carbon metabolism (R23I 100 μg/ml): 1
Number of proteins, keyword Potassium (R23I 100 μg/ml): 1
Number of proteins, keyword Purine salvage (R23I 100 μg/ml): 0
Number of proteins, keyword S-adenosyl-L-methionine (R23I 100 μg/ml): 1
Number of proteins, keyword Serine/threonine-protein kinase (R23I 100 μg/ml): 0
Number of proteins, keyword tRNA processing (R23I 100 μg/ml): 1
Number of proteins, keyword Isoleucine biosynthesis (R23I 100 μg/ml): 1
Number of proteins, keyword Ribosome biogenesis (R23I 100 μg/ml): 0
Number of proteins, keyword Aminopeptidase (R23I 100 μg/ml): 0
Number of proteins, keyword Phosphoprotein (R23I 100 μg/ml): 5
Number of proteins, keyword Purine biosynthesis (R23I 100 μg/ml): 3
Number of proteins, keyword Redox-active center (R23I 100 μg/ml): 3
Number of proteins, keyword Glyoxylate bypass (R23I 100 μg/ml): 4
Number of proteins, keyword Threonine biosynthesis (R23I 100 μg/ml): 2
Number of proteins, keyword Methionine biosynthesis (R23I 100 μg/ml): 3
Number of proteins, keyword Allosteric enzyme (R23I 100 μg/ml): 4
Number of proteins, keyword Serine protease (R23I 100 μg/ml): 3
Number of proteins, keyword NADP (R23I 100 μg/ml): 6
Number of proteins, keyword Protease (R23I 100 μg/ml): 11
Number of proteins, keyword Aminoacyl-tRNA synthetase (R23I 100 μg/ml): 19
Number of proteins, keyword Magnesium (R23I 100 μg/ml): 33
Number of proteins, keyword Hydrolase (R23I 100 μg/ml): 31
Unique proteins (number) (R23I 100 μg/ml): 176
